From patent US20150150842A1, “DESETHYLAMIODARONE COMPOSITIONS” (priority 2012, published 2015)
Where “and” joins values, the source holds several entries; their conditions need not be identical. Equal values may be shown once.

How the values were obtained:
[1] = tested on: conscious dogs with structural atrial remodelling; assay: Chronic rapid atrial pacing induced atrial remodelling and burst-induced atrial fibrillation in conscious dogs
Experimental: The experiments were performed on chronically instrumented Beagle dogs of both sexes, weighing 12-13 kg. The animals were subjected to the following surgery under general anaesthesia: pacemakers were implanted into bilateral subcutaneous pockets in the neck area (Logos, Karios; Biotronik Hungaria Ltd.) and were attached to pacemaker electrodes implanted into the right ventricle and right atrium. Radiofrequency catheter ablation was performed in each animal to achieve third degree atrioventricular (AV) block so that during subsequent rapid atrial pacing (400/min) the ventricles are protected from high heart rates. […] On the seventh day after surgery, following the measurement of right atrial effective refractory period the atrial pacemaker was set to a frequency of 400/min to achieve atrial electrical and structural remodelling. Right atrial rapid pacing is necessary to maintain for 3 months in this model to obtain complete remodeling of the atria signalled by the reduction of right atrial effective refractory period below 80 ms.
The body weight of animals was monitored for strict adherence to the desired dose.
The right atrial effective refractory period (ERP) was measured using the S1 -S2 protocol at cycle lengths of 150 and 300 ms. In addition ERP monitoring, 10-second long burst stimuli were applied at 800/min frequency to induce atrial fibrillation and the incidence of AF, the duration of AF episodes were measured before commencement of oral drug therapy and then after the initiation of therapy every 4 days.

[2] = tested on: dog atrial and ventricular tissue; assay: Atrial and ventricular action potential parameters after chronic oral treatment of non-instrumented dogs; assay type: in vivo, Beagle dogs; details: 500 ms cycle length, 4-week oral DEA 30 or AMIO 45 mg/kg/day
dogs = details: 4 weeks oral AMIO 45 mg/kg (from 243.2 ms, SE=9.7 after) or DEA 30 mg/kg (from 243.6 ms, SE=7.3 after)
conscious rats = tested on: conscious rats
Experimental: The present experiments were performed on male, Sprague-Dawley CFY rats weighing 260-300 g. During a preliminary open-chest surgery we applied a loose silk loop around the left main coronary artery, and then the chest was closed (Leprán et al., 1983). Seven-eight days after the preliminary surgery—after complete recovery and healing—the loose silk loop was tightened to occlude the coronary artery in conscious, freely moving animals. During the first 15 min of myocardial infarction a bipolar ECG was recorded continuously (PowerLab 8SP, ADInstruments, Great Britain).
We followed the survival rate during the acute phase (first 15 min) and during the subsequent 16 hours after coronary artery occlusion. The incidence and duration of arrhythmias in the acute phase were evaluated according to the Lambeth Conventions (Walker et al., 1988), i.e. ventricular fibrillation, ventricular tachycardia, and other types of arrhythmias, including ventricular extrasystoles, bigeminy, and salvos. The size of myocardial infarction was measured in the animals surviving for 16 hours after coronary artery occlusion using nitrotetrazolium-blue dye staining.
Long-term oral pretreatment was applied for 1 month before the coronary artery occlusion. […] Control animals were given the vehicle in a volume of 5 ml/kg.

rats = assay: Chronic 28-day non-GLP toxicology in rats
isolated rabbit heart = assay: Atrial fibrillation induced by rapid atrial pacing with carbachol in isolated (Langendorff) rabbit heart; design: species or system New Zealand white rabbits
Experimental: Hearts from New Zealand white rabbits (1-2 kg) were used in the experiments. Animals were treated with an intravenous injection of 400 IU/kg heparin and anaesthetized by intravenous infusion of 30 mg/kg pentobarbital and sacrificed by cervical dislocation. The protocols were approved by the Department of Animal Health and Food Control of the Ministry of Agriculture and Rural Development, Hungary (XIII/01031/000/2008) and by the Ethical Committee for the Protection of Animals in Research of the University of Szeged, Szeged, Hungary (approval number I-74-125-2007). After median thoracotomy the heart was quickly removed and placed into cold (4° C.) Krebs-Henseleit solution (KHS) containing (in mM): NaCl 118, KCl 4.3, KH2PO4 1.2, MgSO4 1.2, Na pyruvate 5, NaHCO3 25, glucose 11, CaCl2 1.8, pH 7.4 when gassed with a mixture of 95% O2 and 5% CO2. The heart was then mounted on a modified Langendorff apparatus and perfused retrogradely through the aorta with oxygenated KHS warmed to 37° C. The pulmonary vein was also cannulated in order to perfuse the left atrial chamber. In order to record the optical monophasic action potentials the hearts were also loaded with the voltage sensitive fluorescent dye di-4 Anneps for 5 min. To stop the cardiac contractions and avoid motion artefacts during the optical image acquisition the electrical and mechanical activity of the heart was uncoupled by adding 11 mM 2,3-butanedione monoxime to the perfusate.
Epicardial electrograms from the left atrial and left ventricular wall were amplified with a surface electrode amplifier (Experimetria, Hungary) and monitored using a high frequency oscilloscope (Leader Electronics Corporation, Korea). […] The high resolution optical action potential mapping system consisted of a light-emitting diode (LED) lamp as an excitation light source at a wavelength of 527 nm and a high-resolution, high-speed metal-oxide-semiconductor (CMOS) camera (MiCam02, type MCO2C4) equipped with an 580 nm long pass filter for acquiring the fluorescence images from the surface of the heart at a frequency of 833 Hz. Fluorescence images were analyzed using the Brainvison Analyze software (Brainvision Inc Tokyo, Japan).
After allowing the hearts to stabilize for 15 min, acute episodes of atrial fibrillation were induced with rapid electrical stimulation of the atria at a rate of 50 Hz for 10 sec in the presence of 1 μM carbachol in the perfusate. […] All data are expressed as mean±SEM.
All chemicals were purchased from Sigma-Aldrich (St. Louis, Mo., USA), except DEA and di-4 Anneps. Di-4 Anneps was purchased from Molecular Probes Inc. (Eugene, Oreg., USA). […]

[3] = tested on: cardiac thyroid receptors; details: reported earlier (van Beeren et al, 1995; Latham et al, 1987); cited from earlier work

With `CCCCc1oc2ccccc2c1C(=O)c1cc(I)c(OCCNCC)c(I)c1` [DEA, (2-Butylbenzofuran-3-yl)-[4-(2-ethylaminoethoxy)-3,5-diiodophenyl]methanone] the “AF duration (s), Following 4-week treatment, individual animals” value ([1]; oral DEA 25 mg/kg/day, Control (before) 1 122.6, 1 505.8, 6 739.1) was 21.6 s and 44 s and 1.9 s, the “Lg AF duration, Following 4-week treatment, individual animals” value ([1]; oral DEA 25 mg/kg/day, Control (before) 3.05, 3.17, 3.82) was 1.33 and 1.64 and 0.28 and the “ERP, Following 4-week treatment, individual animals” value ([1]; oral DEA 25 mg/kg/day, animals 2010/06, 2010/11, 2010/14, Control (before) <80 in all) was 80 ms (2×) and <80 ms. The “Incidence of AF, Following 4-week treatment, individual animals” value ([1]; oral DEA 25 mg/kg/day, burst-induced AF, Control (before) 60%, 50%, 27%) was 10% (2×) and 27%, the “Lg AF duration, Following 4-week treatment, Mean ± SE” value ([1]; oral DEA 25 mg/kg/day, n=3, Control (before) 3.35 ± 0.24) was 1.08 ± 0.41 and the “Incidence of AF, Following 4-week treatment, Mean ± SE” value ([1]; oral DEA 25 mg/kg/day, n=3, Control (before) 45.7 ± 9.77) was 15.7 ± 5.67%. For the same molecule, the “AF duration (s), Following 4-week treatment, Mean ± SE” value ([1]; oral DEA 25 mg/kg/day, n=3, Control (before) 3122 ± 1811.7) was 22.5 ± 12.16 s, the “Incidence and duration of atrial fibrillation” value ([1]; three animals, 4-week oral treatment, DEA 25, AMIO 50 mg/kg/day, accompanied by prolongation of the ERP) was “markedly and significantly decreased” and the “Vmax (V/s), Dog atrium” value ([2]; n = 3, CONTROL 249.7 ± 52.7) was 231.5 ± 45.4 V/s. The “APD90 (ms), Dog atrium” value ([2]; n = 4, CONTROL 123.9 ± 9.6) was 156.6 ± 12.6 ms, the “ECG QTc interval after treatment” value (dogs) was 266.9 ms and the “Death due to the 1 month treatment” value (conscious rats; 1 month oral pretreatment) was “No death occurred”. The “Survival rate during the acute phase of experimental myocardial infarction” value (conscious rats; 1 month oral pretreatment) was “significantly improved”, the “Behavioral changes, body weight increments” value (conscious rats; 1 month oral pretreatment, AMIO 30 or 100, DEA 15 or 50 mg/kg/day) was “Neither AMIO nor DEA produced any behavioral changes of the animals, or in body weight increments” and the Arrhythmia score (conscious rats; first 15 min after coronary artery occlusion, 1 month oral AMIO 100 or DEA 50 mg/kg/day, control 4.77±0.33) was 3.27±0.56. For the same molecule, the “Incidence of ventricular fibrillation” value (conscious rats; larger doses (AMIO 100, DEA 50 mg/kg/day), after coronary artery occlusion) was “significantly decreased”, the “Detection of the administered drug 14 days after the completion of administration” value (rats; 28-day oral AMIO 200 mg/kg/day or DEA 100 mg/kg/day, plasma (DEA: plasma or cardiac tissue)) was “not detected in plasma or cardiac tissue samples” and the “Elimination of DEA compared to AMIO” value (rats; 28-day oral study) was “significantly faster”. The “Occurrence of atrial fibrillation, After treatment (number of hearts)” value (isolated rabbit heart; 1 μM carbachol, 50 Hz pacing 10 sec, DEA 5 μM, before treatment 5 of 5 hearts) was 0 of 5 and 0, the “Occurrence of atrial fibrillation after treatment, %” value (isolated rabbit heart; 1 μM carbachol, DEA 5 μM, Control 77) was 0% and the “Average duration of atrial fibrillation episodes, After treatment” value (isolated rabbit heart; 1 μM carbachol, DEA 5 μM, mean±SEM, before treatment 110.2 ± 37.1) was 0 ± 0. The “Occurrence of atrial fibrillation” value (isolated rabbit heart; second trial) was “completely prevented the occurrence of atrial fibrillation” and the “Affinity for cardiac thyroid receptors compared to AMIO” value [3] was “higher affinity”.
